These results are taken from patent publication US12344649B2, “Modulators of parathyroid hormone receptor (PTHR1)” (Flagship Pioneering Innovations VI, LLC, priority 2019, dated 2025).

The target in this assay is T1, PTHR1 (Homo sapiens, UniProt Q03431).
T1 sequence (Q03431 27-593): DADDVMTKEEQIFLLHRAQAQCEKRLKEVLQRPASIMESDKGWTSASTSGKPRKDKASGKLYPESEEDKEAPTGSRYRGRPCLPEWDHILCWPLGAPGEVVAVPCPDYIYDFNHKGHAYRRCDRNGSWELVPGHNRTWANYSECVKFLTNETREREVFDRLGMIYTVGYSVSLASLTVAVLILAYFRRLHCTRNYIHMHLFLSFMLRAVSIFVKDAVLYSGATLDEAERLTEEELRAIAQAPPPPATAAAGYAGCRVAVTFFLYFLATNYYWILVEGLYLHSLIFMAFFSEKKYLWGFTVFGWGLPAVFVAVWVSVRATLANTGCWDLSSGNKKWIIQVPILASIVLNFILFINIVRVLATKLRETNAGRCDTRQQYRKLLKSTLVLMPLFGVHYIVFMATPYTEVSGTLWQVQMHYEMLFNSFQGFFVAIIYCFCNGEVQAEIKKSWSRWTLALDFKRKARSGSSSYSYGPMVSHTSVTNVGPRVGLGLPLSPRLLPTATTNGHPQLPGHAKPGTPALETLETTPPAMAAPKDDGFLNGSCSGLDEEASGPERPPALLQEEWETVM
Description: cAMP accumulation assay (HTRF) in CHO-K1/Ga15/PTHR1 cells. Format: cell-based. The arrangement: host or cells: CHO-K1 (recombinant line CHO-K1/Ga15/PTHR1). The note with it: for Emax: CHO-K1, cAMP assay, fitted dose-response maximum; for cAMP accumulation activity compared to control peptide: FIG. 3, PTH 1-34 positive control; for cAMP: relative to PTH [1-34], CHO-K1/Ga15/PTHR1 cells. How it is done:
Cell suspension (5 μL) was seeded in 384-well plates at a density of 3,000 cells/well. Cells were treated with test samples (5 μL) or agonist (PTH 1-34) for 30 minutes at room temperature. cAMP-d2 working solution (5 μL) and anti-cAMP-Cryptate working solution (5 μL) were added to cells and incubated for 60 minutes at room temperature. The signal of the assay plate was read with PheraStar (BMG LABTECH, NC), an HTRF compatible reader.
For orientation: Cyclic AMP is a second messenger, typically raised through Gs and lowered through Gi signalling.

[1] abbreviates: cAMP accumulation, fitted curve slope, replicate plates.
Where [2] appears, read: cAMP accumulation, replicate plates, read-out: −log10EC50 (converted).
The mark [3] stands for this setting: cAMP assay, fitted dose-response curve, read-out: −log10EC50 (converted).
The mark [4] stands for this setting: cAMP assay, fitted dose-response slope.

Read-outs that look alike come from different tables or passages of the source. Where no end group is shown, it is not given here.

“AVAEIQLMHQRAKWKQELELEEKNKKILEDVY [Peptide R2-32]”: the “−log10Slope” value under setting [1] is recorded as −14.3219. The EC50 under setting [2] is 0.312 µM.
By Emax is commonly meant the greatest response seen or fitted, relative to the assay's reference. As for “AVAEIQLMHQRAKWRAEYELREMLLRLLEEIF [Peptide R1-96]”, the Emax stood at 99.7%, the “cAMP accumulation activity compared to control peptide” value is reported as “activity similar to the control peptide” and the cAMP entry is on record as “+”. The EC50 under setting [3] is 0.00986 µM. The “−log10Slope” value under setting [4] was −3.352.
As for “AVATIQLMTDIAKIRAEYELREMLLRLLEEIF [Peptide R2-6]”, the “−log10Slope” value under setting [1] is listed as −0.3341.
Take “GIAVFTIMHLRIYLRAEYELREMLLRLLEEIF [Peptide R2-17]”: the “−log10Slope” value under setting [1] is listed as −2.077. For the same sequence, the EC50 under setting [2] was 448 µM.
Take “GIAVITIMIDYAKLRAEYELREMLLRLLEEIF [Peptide R2-22]”: the EC50 is 7.09e-05 µM, the “cAMP accumulation activity compared to control peptide” value was “increased activity as compared to the control peptide” and the cAMP entry was “++”. The “−log10Slope” value under setting [1] is reported as 7.165.
As to “GIAVLTILDLRAKLRAEYELREMLLRLLEEIF [Peptide R2-14]”, the EC50 was 5.21e-06 µM, the “cAMP accumulation activity compared to control peptide” value is “increased activity as compared to the control peptide” and the cAMP entry is listed as “++”. In addition, the “−log10Slope” value under setting [1] stood at 2.196.
On the same counts, the results for “GLAALTIGLLRAKLRAEYELREMLLRLLEEIF [Peptide R2-24]” are 4.24e-05 µM, “increased activity as compared to the control peptide”, “++” and 5.587.
Consider “GVAEIQLMHDIPVIRAEYELREMLLRLLEEIF [Peptide R2-3]”, for which, under setting [1], the “−log10Slope” value is reported as −8.5715. Besides, the EC50 under setting [2] was 11.8 µM.
In the same order, the values of “GVAEIQLMVDLDIIRAEYELREMLLRLLEEIF [Peptide R2-12]” are −2.726 and 137 µM.
On to “GVAELQLMHDLAKIKLELELKVKLLEILKDVY [Peptide R2-49]”, for which the maximal effect (Emax) turned out to be 99.9%. The EC50 under setting [3] was 1.62 µM. Moreover, the “−log10Slope” value under setting [4] was −5.638.
“GVAELQLMHFRALLRAEYELREMLLRLLEEIF [Peptide R2-7]”: the “−log10Slope” value under setting [1] is reported as −0.9597. Besides, the EC50 under setting [2] is 26100 µM.
As for “GVALLQIVHDFAKIRAEYELREMLLRLLEEIF [Peptide R2-5]”, the “−log10Slope” value under setting [1] is on record as −4.972.
Turning to “GVAMLQILHDKAKVRAEYELREMLLRLLEEIF [Peptide R2-11]”, the EC50 was 2.01 µM. Also, the “−log10Slope” value under setting [1] is −11.3552.
Consider “GVSMLQIMHDLAVIRAEYELREMLLRLLEEIF [Peptide R2-4]”, for which the “−log10Slope” value under setting [1] is reported as −13.5432. The EC50 under setting [2] is 1.36 µM.
As to “GVVMLQFMHDVAKIRAEYELREMLLRLLEEIF [Peptide R2-9]”, the “−log10Slope” value under setting [1] is listed as −0.02713.
Take “GVYAIQAMHDLAKIRAEYELREMLLRLLEEIF [Peptide R2-10]”: under setting [1], the “−log10Slope” value was −8.781. For the same sequence, under setting [2], the EC50 is 32.5 µM.
On the same counts, the results for “LILVEQLMDLRAYLRAEYELREMLLRLLEEIF [Peptide R2-16]” are −8.301 and 19.6 µM.
For “LILVKKIIDLRAYLRAEYELREMLLRLLEEIF [Peptide R2-21]”, under setting [1], the “−log10Slope” value is given as −8.121. For the same sequence, the EC50 under setting [2] is 21.2 µM.
For the sequence “PIPVKDIMDLRAYLRAEYELREMLLRLLEEIF [Peptide R2-19]”, the “−log10Slope” value under setting [1] was −5.2427. Also, the EC50 under setting [2] was 20.5 µM.
Regarding “SIIGEQLMLLRALLRAEYELREMLLRLLEEIF [Peptide R2-18]”, the “−log10Slope” value under setting [1] is reported as −1.186. Further, the EC50 under setting [2] was 5940 µM.
For the sequence “VDFEIQLMQQRAQWIADYRIREFLDKLIAEIF [Peptide R1-94]”, the maximum response (Emax) was 90.8%, the “cAMP accumulation activity compared to control peptide” value is recorded as “increased activity as compared to the control peptide” and the cAMP result was “++”. In addition, the EC50 under setting [3] was 7.36e-05 µM. Moreover, under setting [4], the “−log10Slope” value is listed as −3.981.
